Measurements reported in the SangsterLogP compilation.

Test: method code SF-AS, from DOI: 10.2175/106143002x139965, PMID: 12150246

| SMILES | logP |
| --- | --- |
| O=[N+]([O-])c1ccc(Cl)c([N+](=O)[O-])c1 | 2.18 |
| Fc1ccc(Cl)cc1Cl | 3.38 |
| Clc1cccc(Br)c1Cl | 4.61 |
| Clc1ccc(I)cc1 | 4.12 |
| O=[N+]([O-])c1cc(Cl)ccc1O | 2.48 |
| Clc1cccc(I)c1Cl | 4.93 |
| Fc1c(Cl)cccc1Cl | 3.38 |
| Nc1ccc(Cl)c(Cl)c1 | 2.55 |
| Nc1ccc(Cl)cc1[N+](=O)[O-] | 2.56 |
| Nc1c(Cl)cc([N+](=O)[O-])cc1Cl | 2.84 |
| Nc1cc([N+](=O)[O-])ccc1Cl | 2.2 |
| Clc1cccc(Cl)c1Br | 4.17 |
| N#Cc1ccc(Cl)cc1 | 2.24 |
| Nc1ccc([N+](=O)[O-])cc1Cl | 2.14 |
| Nc1ccc(F)cc1Cl | 2.04 |
